According to ChEMBL document CHEMBL1201862, “PubChem BioAssay data set” (2004):
The source made the active and inactive calls.

What was measured:
Cytochrome P450 1A2 = target: T1, Cytochrome P450 1A2 (Homo sapiens, UniProt P05177);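 also: PubChem cytochrome P450 panel assay, CYP1A2 panel member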
T1 sequence (P05177 whole entry): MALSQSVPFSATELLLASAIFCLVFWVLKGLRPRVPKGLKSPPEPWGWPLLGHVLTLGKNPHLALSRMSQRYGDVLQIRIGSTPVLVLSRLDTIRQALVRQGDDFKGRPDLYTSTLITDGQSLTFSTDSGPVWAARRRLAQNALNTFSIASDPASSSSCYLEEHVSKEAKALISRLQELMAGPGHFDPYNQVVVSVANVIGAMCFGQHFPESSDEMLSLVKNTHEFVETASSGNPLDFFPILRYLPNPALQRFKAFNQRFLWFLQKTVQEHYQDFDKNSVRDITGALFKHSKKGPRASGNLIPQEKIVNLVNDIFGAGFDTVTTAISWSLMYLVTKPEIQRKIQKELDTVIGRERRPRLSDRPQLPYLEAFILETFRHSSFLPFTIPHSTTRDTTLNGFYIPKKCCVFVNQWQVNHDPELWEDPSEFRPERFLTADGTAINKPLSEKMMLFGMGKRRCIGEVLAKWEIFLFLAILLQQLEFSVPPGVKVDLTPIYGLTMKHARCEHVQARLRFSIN

Cytochrome P450 3A4 = Cytochrome P450 3A4 (Homo sapiens, UniProt P08684);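 also: CYP3A4 tested as one member of a cytochrome P450 panel screen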
Cytochrome P450 3A4, sequence (P08684 whole entry): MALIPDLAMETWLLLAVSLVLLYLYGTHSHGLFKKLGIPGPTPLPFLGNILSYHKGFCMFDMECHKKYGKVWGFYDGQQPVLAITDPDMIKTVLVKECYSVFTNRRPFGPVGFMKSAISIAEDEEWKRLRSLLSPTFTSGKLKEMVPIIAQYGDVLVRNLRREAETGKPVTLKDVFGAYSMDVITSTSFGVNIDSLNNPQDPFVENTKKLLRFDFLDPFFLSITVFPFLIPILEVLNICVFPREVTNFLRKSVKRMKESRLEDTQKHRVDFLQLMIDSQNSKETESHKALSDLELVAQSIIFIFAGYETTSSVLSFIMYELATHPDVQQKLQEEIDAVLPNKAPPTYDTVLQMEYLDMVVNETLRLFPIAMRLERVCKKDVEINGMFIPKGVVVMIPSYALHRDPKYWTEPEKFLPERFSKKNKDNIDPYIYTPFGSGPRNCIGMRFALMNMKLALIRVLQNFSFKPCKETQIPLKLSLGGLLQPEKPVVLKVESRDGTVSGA

[1] = target: T2, Heat shock factor protein 1 (Mus musculus, UniProt P38532); test: decrease of HSF1-responsive luciferase luminescence – cell-based, NIH3T3, dose retest, confirmation (AID 2382); type: functional;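 also: NIH3T3 fibroblasts with HSF1-driven luciferase reporter stressed by proteasome inhibitor MG132; luminescence from HSF1-driven luciferase expression after 8 hours of MG132 stress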
T2 sequence (P38532 whole entry): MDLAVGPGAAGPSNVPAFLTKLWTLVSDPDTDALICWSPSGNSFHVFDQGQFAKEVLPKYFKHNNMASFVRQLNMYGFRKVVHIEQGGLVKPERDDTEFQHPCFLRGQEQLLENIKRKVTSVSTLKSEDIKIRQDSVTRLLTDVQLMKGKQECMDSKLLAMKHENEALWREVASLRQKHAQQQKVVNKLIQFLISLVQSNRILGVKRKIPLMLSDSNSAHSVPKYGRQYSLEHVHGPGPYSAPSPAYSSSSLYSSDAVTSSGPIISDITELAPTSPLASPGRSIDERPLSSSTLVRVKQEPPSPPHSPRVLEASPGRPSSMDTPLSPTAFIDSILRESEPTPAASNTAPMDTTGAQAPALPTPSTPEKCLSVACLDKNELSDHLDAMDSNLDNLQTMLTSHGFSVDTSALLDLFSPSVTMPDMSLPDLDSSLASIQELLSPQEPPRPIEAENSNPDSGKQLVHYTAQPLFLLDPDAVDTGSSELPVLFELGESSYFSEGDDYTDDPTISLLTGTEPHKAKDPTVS

Streptokinase A = target: T3, Streptokinase A (Streptococcus pyogenes serotype M1, UniProt P10520); test: viability-normalized secreted streptokinase activity reduction – plasminogen activation absorbance, OD405, dose response (AID 1914); type: functional, Streptococcus pyogenes M1 GAS;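 also: secreted streptokinase activity via plasminogen activation per viability signal from cell pellet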
T3 sequence (P10520 whole entry): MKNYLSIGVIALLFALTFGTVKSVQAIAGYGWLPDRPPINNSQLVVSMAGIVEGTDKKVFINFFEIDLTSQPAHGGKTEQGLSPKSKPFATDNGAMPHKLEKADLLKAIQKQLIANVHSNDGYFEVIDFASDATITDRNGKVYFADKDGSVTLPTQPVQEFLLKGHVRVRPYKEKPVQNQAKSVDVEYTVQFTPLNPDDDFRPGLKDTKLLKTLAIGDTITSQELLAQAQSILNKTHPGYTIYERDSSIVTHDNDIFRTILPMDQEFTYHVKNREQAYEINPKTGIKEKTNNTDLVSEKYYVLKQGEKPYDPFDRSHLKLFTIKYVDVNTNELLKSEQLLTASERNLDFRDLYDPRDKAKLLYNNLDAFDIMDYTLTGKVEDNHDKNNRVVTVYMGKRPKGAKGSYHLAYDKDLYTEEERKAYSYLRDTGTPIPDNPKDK

Cytochrome P450 2C9 = Cytochrome P450 2C9 (Homo sapiens, UniProt P11712)
Cytochrome P450 2C9, sequence (P11712 whole entry): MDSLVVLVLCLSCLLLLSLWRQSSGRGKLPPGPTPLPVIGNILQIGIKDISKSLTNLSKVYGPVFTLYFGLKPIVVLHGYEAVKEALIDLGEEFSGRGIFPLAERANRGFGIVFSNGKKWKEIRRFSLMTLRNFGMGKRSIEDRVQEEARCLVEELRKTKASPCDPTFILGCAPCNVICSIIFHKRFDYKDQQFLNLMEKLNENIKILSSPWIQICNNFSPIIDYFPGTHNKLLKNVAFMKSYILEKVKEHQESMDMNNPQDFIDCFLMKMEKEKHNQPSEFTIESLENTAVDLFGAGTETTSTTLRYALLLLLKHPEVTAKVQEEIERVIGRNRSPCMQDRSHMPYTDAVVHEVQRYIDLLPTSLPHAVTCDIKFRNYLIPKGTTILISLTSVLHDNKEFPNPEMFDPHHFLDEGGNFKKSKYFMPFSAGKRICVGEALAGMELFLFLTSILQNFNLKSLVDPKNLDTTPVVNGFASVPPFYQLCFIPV

Cytochrome P450 2C19 = Cytochrome P450 2C19 (Homo sapiens, UniProt P33261); test: Cytochrome panel assay with activity outcomes. Panel member name: p450-cyp2c19 Compounds with AC50 equal or less than 10 uM are considered active; type: functional; conditions: read-out: AC50
Cytochrome P450 2C19, sequence (P33261 whole entry): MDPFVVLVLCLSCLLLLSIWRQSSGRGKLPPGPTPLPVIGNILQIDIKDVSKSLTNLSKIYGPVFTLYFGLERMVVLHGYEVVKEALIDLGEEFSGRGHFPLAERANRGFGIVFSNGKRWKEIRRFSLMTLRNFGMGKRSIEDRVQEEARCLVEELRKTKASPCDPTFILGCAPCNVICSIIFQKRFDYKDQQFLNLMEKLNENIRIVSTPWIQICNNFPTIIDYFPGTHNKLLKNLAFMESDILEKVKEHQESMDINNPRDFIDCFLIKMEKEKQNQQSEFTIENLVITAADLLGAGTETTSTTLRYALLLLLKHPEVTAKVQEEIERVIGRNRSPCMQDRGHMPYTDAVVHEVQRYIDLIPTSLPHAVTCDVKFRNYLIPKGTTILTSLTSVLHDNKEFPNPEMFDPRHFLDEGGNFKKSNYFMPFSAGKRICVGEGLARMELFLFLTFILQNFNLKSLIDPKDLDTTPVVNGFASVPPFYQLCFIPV

[2] = system: Streptococcus sp. 'group A'; test: Streptococcus pyogenes SK(-)GAS viability under kanamycin – luminescence, BacTiterGlo, confirmation, counter-screen for streptokinase expression inhibitor project, dose response (AID 1900); type: functional, organism-based
Streptococcus = test: GAS UMAA2166 growth inhibition – luminescence, BacTiterGlo, counter-screen for streptokinase expression inhibitor project, dose response (AID 1915); type: functional, organism-based;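 also: potency for reduction of bacterial viability or growth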
[3] = luciferase reporter signal suppression in cells – H4 neuroglioma cells, luminescence, dose response (AID 1990); type: functional, cell-based
[4] = Luminescence Cell-Based Dose Response HTS to Identify Inhibitors of 5'UTR Stem-Loop Driven Prion Protein mRNA Translation in H4 Neuroglioblastoma Cells. [Related pubchem assays: 1827 (Project Summary), 1813 (Primary HTS)]; type: functional
[5] = alpha-synuclein stem-loop luciferase translation blockers – H4 neuroglioma cells, luminescence, confirmation (AID 1988); type: functional, cell-based
[6] = target: T4, Corticotropin-releasing factor receptor 2/Corticotropin-releasing factor-binding protein (Homo sapiens, UniProt P24387+Q13324); test: activators of CRF receptor 2 with binding protein – uHTS hits, confirmation (AID 602473); type: functional; conditions: read-out: EC50_Mean
T4 sequence (Q13324 whole entry): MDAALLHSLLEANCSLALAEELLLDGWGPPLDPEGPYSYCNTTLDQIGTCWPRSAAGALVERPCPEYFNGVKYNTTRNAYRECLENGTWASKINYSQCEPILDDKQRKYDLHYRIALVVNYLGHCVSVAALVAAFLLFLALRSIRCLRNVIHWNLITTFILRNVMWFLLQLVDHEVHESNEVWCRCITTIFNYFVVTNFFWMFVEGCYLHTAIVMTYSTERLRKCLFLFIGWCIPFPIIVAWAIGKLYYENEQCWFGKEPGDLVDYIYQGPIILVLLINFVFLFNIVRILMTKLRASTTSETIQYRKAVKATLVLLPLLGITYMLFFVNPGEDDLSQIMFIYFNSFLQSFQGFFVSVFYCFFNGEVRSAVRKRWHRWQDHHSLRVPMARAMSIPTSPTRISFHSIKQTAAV
T4 sequence (P24387 whole entry): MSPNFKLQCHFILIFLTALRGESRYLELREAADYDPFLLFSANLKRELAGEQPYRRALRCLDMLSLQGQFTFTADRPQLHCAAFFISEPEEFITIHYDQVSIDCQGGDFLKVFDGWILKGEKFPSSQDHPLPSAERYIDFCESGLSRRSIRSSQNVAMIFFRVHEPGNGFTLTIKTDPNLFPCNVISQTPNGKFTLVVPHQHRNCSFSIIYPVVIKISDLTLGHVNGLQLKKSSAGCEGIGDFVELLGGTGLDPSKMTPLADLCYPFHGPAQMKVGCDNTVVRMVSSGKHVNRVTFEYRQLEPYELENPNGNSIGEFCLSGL

Paired box protein Pax-8 = Paired box protein Pax-8 (Homo sapiens, UniProt Q06710); test: PAX8 transcriptional activity inhibition in RMG-I – RMG-I cells, luciferase, cherry-pick, dose response (AID 687027); type: functional, cell-based;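 also: luciferase reporter driven by Pax8 target thyroperoxidase promoter measured by SteadyGlo luminescence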
Paired box protein Pax-8, sequence (Q06710 whole entry): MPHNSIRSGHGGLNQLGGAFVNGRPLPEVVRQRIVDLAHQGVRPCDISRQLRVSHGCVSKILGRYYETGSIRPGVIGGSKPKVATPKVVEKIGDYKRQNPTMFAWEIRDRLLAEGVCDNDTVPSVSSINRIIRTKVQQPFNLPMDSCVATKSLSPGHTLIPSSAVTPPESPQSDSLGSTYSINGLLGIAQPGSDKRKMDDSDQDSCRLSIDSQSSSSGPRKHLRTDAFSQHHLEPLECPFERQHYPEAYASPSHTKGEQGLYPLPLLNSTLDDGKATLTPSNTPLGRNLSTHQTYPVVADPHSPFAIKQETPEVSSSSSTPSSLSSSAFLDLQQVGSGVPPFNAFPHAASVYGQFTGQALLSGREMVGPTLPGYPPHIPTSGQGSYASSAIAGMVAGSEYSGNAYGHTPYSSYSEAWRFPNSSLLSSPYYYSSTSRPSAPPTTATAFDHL

Clc1ccc(Sc2cc(N3CCOCC3)nc(-c3ccccc3)n2)cc1
AC50 (Cytochrome P450 1A2): 1.41 µM (inconclusive)
AC50 (Cytochrome P450 3A4): 15.8 µM (inconclusive)

Cc1ccc2nc(N3CCN(Cc4nnnn4Cc4ccccc4)CC3)c(C#N)cc2c1
EC50 [1]: > 195 µM (not active)

Cc1ccc(C(=O)NCCn2cc(SCC(=O)N3CCOCC3)c3ccccc32)cc1
EC50 [1]: > 195 µM (not active)

Cc1cc(C)c2c(O)nc(SCC(=O)N(C)C)nc2n1
AC50 (Cytochrome P450 1A2): 15.8 µM (inconclusive)

COc1ccc(CSCCNC(=S)Nc2ccccc2)cc1Cl
EC50 (Streptokinase A): > 150 µM (not active)

COCCN(CCOC)S(=O)(=O)c1ccc(C(=O)Nc2nc(C)c(C(C)=O)s2)cc1
AC50 (Cytochrome P450 1A2): 0.1 µM (inconclusive)
AC50 (Cytochrome P450 3A4): 3.16 µM (inconclusive)
AC50 (Cytochrome P450 2C9): 20 µM (inconclusive)

Fc1cccc(CSc2ncnc3c2ncn3[C@H]2CCCS2)c1
AC50 (Cytochrome P450 2C19): 3.98 µM (inconclusive)
AC50 (Cytochrome P450 1A2): 0.501 µM (inconclusive)

CC(CO)(CO)Nc1ncnc2ccccc12
AC50 (Cytochrome P450 1A2): 6.31 µM (inconclusive)

CCCC(=O)Nc1ccc2c(c1)nc(CCNC(=O)c1ccccc1)n2C
EC50 [2]: > 150 µM (not active)
EC50 (Streptokinase A): > 150 µM (not active)
EC50 (Streptococcus): > 150 µM (not active)

CC1=NN(c2ccc([N+](=O)[O-])cc2)C(=O)/C1=C\N(C)C
EC50 [2]: 5.85 µM (active)
EC50 (Streptokinase A): > 150 µM (not active)
EC50 (Streptococcus): 10.9 µM (active)

CC(C)(C)NC(=O)c1ccc2c(c1)C1C3CCC(C3)C1C(c1ccccc1)N2 (configuration not stated)
EC50 [3]: > 120 µM (not active)
EC50 [4]: > 120 µM (not active)
EC50 [5]: > 120 µM (not active)

Cn1nnnc1SCc1ccc(C(=O)Nc2ccc(Br)cc2)cc1
AC50 (Cytochrome P450 2C19): 6.31 µM (inconclusive)
AC50 (Cytochrome P450 1A2): 6.31 µM (inconclusive)
AC50 (Cytochrome P450 2C9): 2 µM (inconclusive)

CC1CCCN(S(=O)(=O)c2ccc(C(=O)Nc3nnc(C4CC4)o3)cc2)C1 (configuration not stated)
EC50 [2]: 4.14 µM (active)
EC50 (Streptokinase A): > 150 µM (not active)
EC50 (Streptococcus): 13.8 µM (active)

CN1C(=O)/C(=C/c2ccccc2F)Sc2ccc(C(=O)NCC3CCCO3)cc21 (configuration not stated)
EC50 [2]: 1.09 µM (active)
EC50 (Streptokinase A): > 150 µM (not active)
EC50 (Streptococcus): 15.6 µM (active)

Nc1nc2c3ccccc3nc(Cc3ccccc3)n2n1
EC50 [3]: 29.4 µM (active)
EC50 [4]: > 120 µM (not active)
EC50 [5]: 20.8 µM (active)

COc1ccc(-c2nc3cnc(N4CCOCC4)nc3n(CCc3ccccc3)c2=O)cc1
AC50 (Cytochrome P450 1A2): 10 µM (inconclusive)

CCc1cc(C(=O)NCC(C)(C)N2CCOCC2)sc1C
EC50 [1]: > 195 µM (not active)

C=CCC(NCc1ccco1)c1ccc(OC)cc1 (configuration not stated)
AC50 (Cytochrome P450 1A2): 28.2 µM (inconclusive)
AC50 (Cytochrome P450 3A4): 22.4 µM (inconclusive)

CCN(CC)C(=O)c1cc(-c2ccc(Br)cc2)on1
EC50 [2]: > 150 µM (not active)
EC50 (Streptokinase A): > 150 µM (not active)
EC50 (Streptococcus): > 150 µM (not active)

COC(C(=O)Nc1ccnn1C1CCN(Cc2nccs2)CC1)c1ccccc1 (configuration not stated)
EC50 [2]: > 150 µM (not active)
EC50 (Streptokinase A): > 150 µM (not active)
EC50 (Streptococcus): > 150 µM (not active)

O=C(Nc1nncs1)c1ccc(F)c(S(=O)(=O)N2CCCCC2)c1
EC50 [1]: 39.5 µM (active)

O=C(Nc1cccc(Cl)c1)c1ccc(S(=O)(=O)NCC2CCCO2)cc1 (configuration not stated)
EC50 [1]: > 195 µM (not active)

COc1ccc2nc(N3C(=O)CC(Cc4ccc(Cl)cc4)C3=O)sc2c1 (configuration not stated)
AC50 (Cytochrome P450 1A2): 2.24 µM (inconclusive)

Cc1ccc(-n2c(C)cc(C(=O)CN3C(=O)C(=O)N(C4CCCC4)C3=O)c2C)cc1
EC50 [6]: > 53 µM (inactive)

CC1CCC(C(C)C)C(OCC(O)CN2CCN(Cc3ccccc3)CC2)C1 (configuration not stated)
AC50 (Cytochrome P450 1A2): 12.6 µM (inconclusive)
AC50 (Cytochrome P450 2C9): 1.41 µM (inconclusive)

CCOC(=O)C(O)(c1ccc(NC(=S)NC(=O)c2ccc(Cl)cc2Cl)cc1)C(F)(F)F (configuration not stated)
EC50 [6]: 15.9 µM (active)

Cc1cc(NC(=O)CN2C(=O)NC(C)(c3ccc(OC(F)F)cc3)C2=O)no1 (configuration not stated)
EC50 [6]: 14.4 µM (active)

Cc1noc(C)c1C(=O)Nc1nccs1
EC50 [2]: > 150 µM (not active)
EC50 (Streptokinase A): > 150 µM (not active)
EC50 (Streptococcus): > 150 µM (not active)

O=C(O)C1CCC(=O)N(C2CCCCC2)C1c1ccccc1Cl (configuration not stated)
EC50 [1]: > 195 µM (not active)

CCOC(=O)c1cc2occc2n1CC(=O)N1CCCc2ccccc21
EC50 [1]: > 195 µM (not active)

Cc1cccc(N2CCN(Cc3nc(-c4ccccc4Cl)oc3C)CC2)n1
EC50 [1]: > 195 µM (not active)

Cc1cc2c3c(ccc(C)c3n1)N=CN2c1ccccc1
EC50 [3]: 12.3 µM (active)
EC50 [4]: 23.3 µM (active)
EC50 [5]: 119 µM (active)

CCc1cccc(CC)c1N1C(=O)C2=C(SCCCS2)C1=O
EC50 [6]: 6.9 µM (active)

Cc1ccc(S(=O)(=O)Nc2ccc3c(c2)C(=O)N([C@@H](C)CO)C[C@@H](C)[C@@H](CN(C)Cc2ccc(Cl)c(Cl)c2)OCCCC[C@@H](C)O3)cc1
AC50 (Paired box protein Pax-8): 9.18 µM (active)

C[C@@H]1CCCCO[C@H](CN(C)C(=O)Nc2ccc(C(F)(F)F)cc2)[C@@H](C)CN([C@@H](C)CO)C(=O)c2cc(NC(=O)Nc3ccccc3)ccc2O1
AC50 (Paired box protein Pax-8): 1.89 µM (active)

C[C@@H]1CN([C@@H](C)CO)C(=O)Cc2cc(NC(=O)C3CC3)ccc2O[C@H]1CN(C)Cc1ccc(-c2ccccc2)cc1
AC50 (Paired box protein Pax-8): 18.9 µM (active)

Sc1nnc(C2CCCCC2)n1/N=C/c1c(Cl)cccc1Cl
EC50 [2]: 10.1 µM (active)
EC50 (Streptokinase A): > 150 µM (not active)
EC50 (Streptococcus): 71.9 µM (active)

COc1ccc(/C(C)=N/NC(=O)c2ccc(N(C)C)cc2)cc1
AC50 (Cytochrome P450 1A2): 10 µM (inconclusive)

Cc1ccc(/C=N/n2cnnc2)s1
AC50 (Cytochrome P450 2C19): 11.2 µM (inconclusive)
AC50 (Cytochrome P450 1A2): 22.4 µM (inconclusive)
AC50 (Cytochrome P450 3A4): 15.8 µM (inconclusive)
AC50 (Cytochrome P450 2C9): 14.1 µM (inconclusive)
